Test system: SEM cells
Assay: cell viability relative to DMSO control; higher = less cytotoxic
Settings: 48 h
Summary of the method: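 NOMO1, SEM and P12-Ichikawa leukemia cells spent at least four passages adapting to each medium before use. They were seeded at 500 cells/well (NOMO1, SEM) or 1000 cells/well (P12-Ichikawa) in 5 μl in 1536-well plates and pin-dosed with library compounds in DMSO at 11 threefold steps from 47 μM down to 0.79 nM. After 48 h at 37°C, CellTiter-Glo One luminescence was read. Viability is reported as a percentage of the DMSO wells on each plate, with cell-free wells as background.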

[1] = HPLM + 10% dialyzed FBS, 0.000781 µM
[2] = HPLM + 10% dialyzed FBS, 0.00234 µM
[3] = HPLM + 10% dialyzed FBS, 0.00702 µM
[4] = HPLM + 10% dialyzed FBS, 0.0211 µM
[5] = HPLM + 10% dialyzed FBS, 0.0632 µM
[6] = HPLM + 10% dialyzed FBS, 0.19 µM
[7] = HPLM + 10% dialyzed FBS, 0.569 µM
[8] = HPLM + 10% dialyzed FBS, 1.71 µM
[9] = HPLM + 10% dialyzed FBS, 5.12 µM
[10] = HPLM + 10% dialyzed FBS, 15.4 µM
[11] = HPLM + 10% dialyzed FBS, 46.1 µM
[12] = RPMI 5 mM glucose + 10% FBS, 0.000781 µM
[13] = RPMI 5 mM glucose + 10% FBS, 0.00234 µM
[14] = RPMI 5 mM glucose + 10% FBS, 0.00702 µM
[15] = RPMI 5 mM glucose + 10% FBS, 0.0211 µM
[16] = RPMI 5 mM glucose + 10% FBS, 0.0632 µM
[17] = RPMI 5 mM glucose + 10% FBS, 0.19 µM
[18] = RPMI 5 mM glucose + 10% FBS, 0.569 µM
[19] = RPMI 5 mM glucose + 10% FBS, 1.71 µM
[20] = RPMI 5 mM glucose + 10% FBS, 5.12 µM
[21] = RPMI 5 mM glucose + 10% FBS, 15.4 µM
[22] = RPMI 5 mM glucose + 10% FBS, 46.1 µM
[23] = RPMI 5 mM glucose + 10% dialyzed FBS, 0.000781 µM
[24] = RPMI 5 mM glucose + 10% dialyzed FBS, 0.00234 µM
[25] = RPMI 5 mM glucose + 10% dialyzed FBS, 0.00702 µM
[26] = RPMI 5 mM glucose + 10% dialyzed FBS, 0.0211 µM
[27] = RPMI 5 mM glucose + 10% dialyzed FBS, 0.0632 µM
[28] = RPMI 5 mM glucose + 10% dialyzed FBS, 0.19 µM
[29] = RPMI 5 mM glucose + 10% dialyzed FBS, 0.569 µM
[30] = RPMI 5 mM glucose + 10% dialyzed FBS, 1.71 µM
[31] = RPMI 5 mM glucose + 10% dialyzed FBS, 5.12 µM
[32] = RPMI 5 mM glucose + 10% dialyzed FBS, 15.4 µM
[33] = RPMI 5 mM glucose + 10% dialyzed FBS, 46.1 µM

| Structure (SMILES) | cell viability [1] [%] | cell viability [2] [%] | cell viability [3] [%] | cell viability [4] [%] | cell viability [5] [%] | cell viability [6] [%] | cell viability [7] [%] | cell viability [8] [%] | cell viability [9] [%] | cell viability [10] [%] | cell viability [11] [%] | cell viability [12] [%] | cell viability [13] [%] | cell viability [14] [%] | cell viability [15] [%] | cell viability [16] [%] | cell viability [17] [%] | cell viability [18] [%] | cell viability [19] [%] | cell viability [20] [%] | cell viability [21] [%] | cell viability [22] [%] | cell viability [23] [%] | cell viability [24] [%] | cell viability [25] [%] | cell viability [26] [%] | cell viability [27] [%] | cell viability [28] [%] | cell viability [29] [%] | cell viability [30] [%] | cell viability [31] [%] | cell viability [32] [%] | cell viability [33] [%] |
| --- | --- | --- | --- | --- | --- | --- | --- | --- | --- | --- | --- | --- | --- | --- | --- | --- | --- | --- | --- | --- | --- | --- | --- | --- | --- | --- | --- | --- | --- | --- | --- | --- | --- |
| CN1C(=O)COc2c(C(=O)NC3CN4CCC3CC4)cc(Cl)cc21 (stereo unspecified) | 114 | 112 | 119 | 100 | 116 | 101 | 118 | 101 | 112 | 105 | 101 | 91.7 | 93.7 | 94 | 96.6 | 104 | 95.7 | 109 | 90.6 | 88.5 | 95.5 | 84.9 | 116 | 120 | 125 | 122 | 118 | 126 | 107 | 109 | 97.6 | 131 | 124 |
| C[C@H]1CCC/C=C/C2C[C@H](O)C[C@H]2[C@H](O)/C=C/C(=O)O1 (stereo partly specified) | 15.7 | 31.7 | 17.9 | 5.79 | 5.21 | 5.3 | 5 | 4.73 | 2.72 | 2.09 | 2.38 | 11.4 | 54.4 | 44.6 | 9.33 | 5.67 | 6.09 | 5.62 | 4.83 | 3.32 | 3.06 | 2.16 | 4.97 | 29.4 | 23.6 | 5.2 | 4.1 | 3.92 | 3.96 | 3.5 | 2 | 1.85 | 1.45 |
| CC1=C(C)C2=C(S1)[N]3C(=NN=C3[C@H](CC(=O)OC(C)(C)C)/N=C2/C4=CC=C(Cl)C=C4)C | 98.5 | 115 | 107 | 105 | 104 | 43.2 | 11.3 | 17.7 | 6.74 | 4.33 | 1.71 | 100 | 108 | 106 | 102 | 103 | 67.7 | 13.7 | 18.7 | 7.27 | 4.94 | 1.39 | 108 | 103 | 102 | 78.7 | 94.7 | 53.9 | 17.5 | 15.8 | 5.05 | 3.64 | 1.14 |
| C[C@@]12OC(=O)[C@@]1(NC(=O)[C@@H]2CCCl)[C@@H](O)[C@H]\3CCC\C=C3 | 78.2 | 92.7 | 93.6 | 100 | 34.2 | 10 | 6.88 | 6.65 | 4.57 | 3.3 | 2.16 | 87.5 | 90.2 | 93.7 | 96.8 | 31.8 | 8.22 | 7.13 | 6.4 | 4.56 | 2.53 | 2.01 | 80.9 | 92 | 91.8 | 84 | 33.3 | 9.46 | 7.84 | 7.08 | 5.11 | 3.72 | 2.53 |
| c1cc(OCCN2CCCCC2)cc(-c2n[nH]c3ccc(-c4nc[nH]n4)cc23)c1 | 109 | 102 | 113 | 107 | 120 | 105 | 82.8 | 57.6 | 99.9 | 87.8 | 60.4 | 95.9 | 99.9 | 104 | 97.8 | 107 | 110 | 90.6 | 54.4 | 97.3 | 92.1 | 47.6 | 83.9 | 105 | 99.3 | 119 | 126 | 107 | 103 | 48.8 | 89.4 | 76.7 | 53.7 |
| Cl.Cl.Fc1ccc(C(OCCN2CCN(CCCc3ccccc3)CC2)c2ccc(F)cc2)cc1 | 97.4 | 96 | 99.3 | 104 | 104 | 93.2 | 97.1 | 113 | 111 | 99.7 | 32.4 | 111 | 112 | 111 | 120 | 109 | 114 | 103 | 107 | 102 | 115 | 22.3 | 84.9 | 99.5 | 105 | 118 | 120 | 124 | 130 | 122 | 120 | 110 | 27.9 |
| Cn1cc(-c2ccc3ncc(Cc4ccc5ncccc5c4)n3n2)cn1 | 93.2 | 108 | 103 | 98.8 | 101 | 112 | 94.3 | 99.5 | 89.9 | 72.8 | 71 | 113 | 117 | 122 | 109 | 131 | 122 | 115 | 107 | 123 | 74 | 79.4 | 96.2 | 103 | 102 | 101 | 112 | 109 | 111 | 106 | 98.8 | 71.2 | 67.3 |
| Cc1c(OCC(F)(F)F)ccnc1C[S+]([O-])c1nc2ccccc2[nH]1 (stereo unspecified) | 96.5 | 93.5 | 96.4 | 97.1 | 99 | 99.9 | 106 | 117 | 106 | 104 | 125 | 116 | 110 | 99.7 | 107 | 105 | 126 | 111 | 124 | 115 | 104 | 101 | 97.7 | 109 | 112 | 111 | 109 | 122 | 112 | 121 | 131 | 121 | 97.7 |
| NC\1=N\C(=O)N(\C=N1)[C@H]2C[C@H](O)[C@@H](CO)O2 | 57.8 | 100 | 94.7 | 97.2 | 118 | 101 | 89.8 | 71.3 | 41 | 29.5 | 16.5 | 54.1 | 91.3 | 86 | 92.9 | 107 | 92 | 81.8 | 63.8 | 32.2 | 22.2 | 12.1 | 55.1 | 99.4 | 81 | 84.3 | 91.4 | 93.3 | 67.5 | 49.1 | 32 | 27.5 | 21.2 |
| CN(C)CCC=C1C2=C(C=CC=C2)\C=C/C3=C1C=CC=C3 | 108 | 115 | 120 | 100 | 116 | 124 | 116 | 101 | 108 | 99.1 | 72.2 | 108 | 116 | 106 | 109 | 109 | 112 | 93.1 | 68.7 | 102 | 101 | 84.9 | 112 | 108 | 129 | 130 | 119 | 128 | 112 | 106 | 116 | 108 | 81.7 |
| CCOc1ccccc1OCCNC(C)Cc1ccc(OC)c([S+](N)(=O)[O-])c1 (stereo unspecified) | 87.1 | 82.9 | 101 | 103 | 116 | 101 | 125 | 103 | 119 | 90.9 | 85.8 | 93.4 | 85.9 | 101 | 118 | 104 | 106 | 115 | 114 | 107 | 97.6 | 105 | 112 | 88.9 | 115 | 126 | 115 | 109 | 130 | 129 | 108 | 127 | 114 |
| Cc1ccccc1C(C(=O)NC1CCCCC1)N(C(=O)CNc1ccc(C#N)cc1)c1cccc(F)c1 (stereo unspecified) | 88.7 | 116 | 119 | 121 | 124 | 118 | 118 | 105 | 118 | 103 | 111 | 113 | 118 | 105 | 106 | 105 | 119 | 103 | 96.9 | 95 | 93.4 | 106 | 85 | 107 | 119 | 95.4 | 97 | 103 | 91.6 | 108 | 97.6 | 101 | 89.5 |
| COc1cc2ncnc(Nc3ccc(F)c(Cl)c3)c2cc1OCCCN1CCOCC1 | 118 | 113 | 123 | 103 | 123 | 112 | 107 | 102 | 86.8 | 48.5 | 10.9 |  |  |  |  |  |  |  |  |  |  |  | 105 | 119 | 125 | 102 | 125 | 118 | 123 | 108 | 78.1 | 82 | 31.9 |
| CC(C)(O)CNc1nc(Nc2ccnc(C(F)(F)F)c2)nc(-c2cccc(C(F)(F)F)n2)n1 | 106 | 89 | 101 | 105 | 91.3 | 109 | 110 | 93.5 | 67.2 | 33.1 | 24.6 | 99.5 | 84.7 | 119 | 107 | 80.7 | 122 | 117 | 64.7 | 31.3 | 15.8 | 14.6 | 105 | 89.8 | 112 | 107 | 106 | 114 | 122 | 88.7 | 44.6 | 21.4 | 14.7 |
